In article PMC12051037 (Chemistry (Weinheim an der Bergstrasse, Germany), 2024) one finds stability data, which are given here for 1 substance.

“Also recorded” adds a separate entry of the source.

A short description of this data set: Stability of the aldehyde in solution. The note with it: slowly converts into 1. The data set is classed as physicochemical.

For the substance tumonolide aldehyde [compound 2], the stability entry is “not stable; also recorded: poor stability”.
